In PubChem BioAssay (NCI):
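Dose response: 5 concentrations. Exposure: 48 h. Format: 96-well plates. Endpoint: linear interpolation; highest concentration if not reached. Abbreviation: GI50, concentration required for 50% inhibition of growth. TGI: total growth inhibition.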

Columns and labels:
Experiment in all cases: growth of human tumour cells (NCI), 48 h
NCI-H226 lung = system: NCI-H226 lung
NCI-H23 lung = system: NCI-H23 lung
NCI-H460 lung = system: NCI-H460 lung
NCI/ADR-RES ovarian = system: NCI/ADR-RES ovarian
OVCAR-3 ovarian = system: OVCAR-3 ovarian
OVCAR-4 ovarian = system: OVCAR-4 ovarian
OVCAR-5 ovarian = system: OVCAR-5 ovarian
OVCAR-8 ovarian = system: OVCAR-8 ovarian
PC-3 prostate = system: PC-3 prostate
RPMI-8226 leukemia = system: RPMI-8226 leukemia
RXF 393 renal = system: RXF 393 renal
SF-268 CNS = system: SF-268 CNS
SF-295 CNS = system: SF-295 CNS
SF-539 CNS = system: SF-539 CNS
SK-MEL-2 melanoma = system: SK-MEL-2 melanoma
SK-MEL-28 melanoma = system: SK-MEL-28 melanoma
SK-MEL-5 melanoma = system: SK-MEL-5 melanoma
SK-OV-3 ovarian = system: SK-OV-3 ovarian
SN12C renal = system: SN12C renal
SNB-19 CNS = system: SNB-19 CNS
SNB-75 CNS = system: SNB-75 CNS
SR leukemia = system: SR leukemia
SW-620 colon = system: SW-620 colon
T-47D breast = system: T-47D breast
TK-10 renal = system: TK-10 renal
U251 CNS = system: U251 CNS
UACC-257 melanoma = system: UACC-257 melanoma
UACC-62 melanoma = system: UACC-62 melanoma
UO-31 renal = system: UO-31 renal

**Q.** `COc1ccc(-c2cnoc2-c2ccc(OC)cc2O)cc1` was tested. Which TGI (NCI-H226 lung) did it give?
**A.** 55.6 µM

**Q.** And the GI50 (NCI-H23 lung)?
**A.** 4.31 µM

**Q.** What about the TGI (NCI-H23 lung) of the same molecule?
**A.** 50.3 µM

**Q.** And the GI50 (NCI-H460 lung)?
**A.** 3.24 µM

**Q.** What about the TGI (NCI-H460 lung) of the same molecule?
**A.** 12.4 µM

**Q.** And the GI50 (NCI/ADR-RES ovarian)?
**A.** 1.75 µM

**Q.** What about the TGI (NCI/ADR-RES ovarian) of the same molecule?
**A.** 19.1 µM

**Q.** And the GI50 (OVCAR-3 ovarian)?
**A.** 2.32 µM

**Q.** What about the TGI (OVCAR-3 ovarian) of the same molecule?
**A.** 5.76 µM

**Q.** What about the GI50 (OVCAR-4 ovarian) of the same molecule?
**A.** 10.5 µM

**Q.** And the TGI (OVCAR-4 ovarian)?
**A.** > 100 µM

**Q.** What about the GI50 (OVCAR-5 ovarian) of the same molecule?
**A.** 13.5 µM

**Q.** What about the TGI (OVCAR-5 ovarian) of the same molecule?
**A.** > 100 µM

**Q.** What about the GI50 (OVCAR-8 ovarian) of the same molecule?
**A.** 4.49 µM

**Q.** And the TGI (OVCAR-8 ovarian)?
**A.** 30.4 µM

**Q.** And the GI50 (PC-3 prostate)?
**A.** 4.52 µM

**Q.** What about the TGI (PC-3 prostate) of the same molecule?
**A.** 54.3 µM

**Q.** And the GI50 (RPMI-8226 leukemia)?
**A.** 4.98 µM

**Q.** And the TGI (RPMI-8226 leukemia)?
**A.** 67.4 µM

**Q.** And the GI50 (RXF 393 renal)?
**A.** 3.4 µM

**Q.** What about the TGI (RXF 393 renal) of the same molecule?
**A.** 11.1 µM

**Q.** And the GI50 (SF-268 CNS)?
**A.** 6.32 µM

**Q.** And the TGI (SF-268 CNS)?
**A.** 42.6 µM

**Q.** And the GI50 (SF-295 CNS)?
**A.** 2.99 µM

**Q.** And the TGI (SF-295 CNS)?
**A.** 14.8 µM

**Q.** What about the GI50 (SF-539 CNS) of the same molecule?
**A.** 3.66 µM

**Q.** What about the TGI (SF-539 CNS) of the same molecule?
**A.** 16.6 µM

**Q.** What about the GI50 (SK-MEL-2 melanoma) of the same molecule?
**A.** 3.33 µM

**Q.** What about the TGI (SK-MEL-2 melanoma) of the same molecule?
**A.** 11.8 µM

**Q.** And the GI50 (SK-MEL-28 melanoma)?
**A.** 5.42 µM

**Q.** And the TGI (SK-MEL-28 melanoma)?
**A.** 60.5 µM

**Q.** And the GI50 (SK-MEL-5 melanoma)?
**A.** 3.52 µM

**Q.** And the TGI (SK-MEL-5 melanoma)?
**A.** 14.2 µM

**Q.** And the GI50 (SK-OV-3 ovarian)?
**A.** 4.17 µM

**Q.** And the TGI (SK-OV-3 ovarian)?
**A.** 24 µM

**Q.** What about the GI50 (SN12C renal) of the same molecule?
**A.** 5 µM

**Q.** What about the TGI (SN12C renal) of the same molecule?
**A.** 41.1 µM

**Q.** What about the GI50 (SNB-19 CNS) of the same molecule?
**A.** 5.29 µM

**Q.** And the TGI (SNB-19 CNS)?
**A.** > 100 µM

**Q.** What about the GI50 (SNB-75 CNS) of the same molecule?
**A.** 1.72 µM

**Q.** What about the TGI (SNB-75 CNS) of the same molecule?
**A.** 9.86 µM

**Q.** And the GI50 (SR leukemia)?
**A.** 0.628 µM

**Q.** What about the TGI (SR leukemia) of the same molecule?
**A.** 13 µM

**Q.** And the GI50 (SW-620 colon)?
**A.** 2.05 µM

**Q.** And the TGI (SW-620 colon)?
**A.** > 100 µM

**Q.** What about the GI50 (T-47D breast) of the same molecule?
**A.** 8.64 µM

**Q.** And the TGI (T-47D breast)?
**A.** > 100 µM

**Q.** And the GI50 (TK-10 renal)?
**A.** 11.8 µM

**Q.** What about the TGI (TK-10 renal) of the same molecule?
**A.** 47.5 µM

**Q.** And the GI50 (U251 CNS)?
**A.** 3.58 µM

**Q.** What about the TGI (U251 CNS) of the same molecule?
**A.** 18.3 µM

**Q.** And the GI50 (UACC-257 melanoma)?
**A.** 6.9 µM

**Q.** And the TGI (UACC-257 melanoma)?
**A.** 41.6 µM

**Q.** What about the GI50 (UACC-62 melanoma) of the same molecule?
**A.** 2.61 µM

**Q.** What about the TGI (UACC-62 melanoma) of the same molecule?
**A.** 20.2 µM

**Q.** And the GI50 (UO-31 renal)?
**A.** 11.6 µM

**Q.** What about the TGI (UO-31 renal) of the same molecule?
**A.** 53.3 µM
